Assay [1] concerns the target T1, human phosphodiesterase 5 (PDE 5) (Homo sapiens, UniProt O76074).
T1 construct: PDE 5 preparations are obtained from human platelets by disruption; from tissue; host or cells: human platelets (Mono Q ion exchange fractions with PDE 5 activity)
Put plainly: Inhibition of human phosphodiesterase 5 (PDE 5) (B-3). Type of assay: biochemical. The following applies: PDE 5 preparation from human platelets; [8-3H] cGMP substrate, SPA; in some cases means of individual determinations. On the procedure: B-3. Inhibition of Human Phosphodiesterase 5 (PDE 5)
PDE 5 preparations are obtained from human platelets by disruption (Microfluidizer®, 800 bar, 3 passes), followed by centrifugation (75 000 g, 60 min, 4° C.) and ion exchange chromatography of the supernatant on a Mono Q 10/10 column (linear sodium chloride gradient, elution with a 0.2-0.3M solution of sodium chloride in buffer (20 mM Hepes pH 7.2, 2 mM magnesium chloride). Fractions having PDE 5 activity are combined (PDE 5 preparation) and stored at −80° C.
To determine their in vitro action on human PDE 5, the test substances are dissolved in 100% DMSO and serially diluted. Typically, dilution series (1:3) from 200 μM to 0.091 μM are prepared (resulting final concentrations in the test: 4 μM to 0.0018 μM). In each case 2 μl of the diluted substance solutions are placed into the wells of microtitre plates (Isoplate-96/200 W; Perkin Elmer). Subsequently, 50 μl of a dilution of the above-described PDE 5 preparation are added. The dilution of the PDE 5 preparation is chosen such that during the later incubation less than 70% of the substrate are converted (typical dilution: 1:100; dilution buffer: 50 mM tris/hydrochloric acid pH 7.5, 8.3 mM magnesium chloride, 1.7 mM EDTA, 0.2% BSA). The substrate, [8-^3H] cyclic guanosine-3′,5′-monophosphate (1 μCi/μl; Perkin Elmer), is diluted 1:2000 with assay buffer (50 mM tris/hydrochloric acid pH 7.5, 8.3 mM magnesium chloride, 1.7 mM EDTA) to a concentration of 0.0005 μCi/μl. By addition of 50 μl (0.025 μCi) of the diluted substrate, the enzyme reaction is finally started. The test mixtures are incubated at room temperature for 60 min and the reaction is stopped by adding 25 μl of a suspension of 18 mg/ml yttrium scintillation proximity beads in water (phosphodiesterase beads for SPA assays, RPNQ 0150, Perkin Elmer). The microtitre plates are sealed with a film and left to stand at room temperature for 60 min. Subsequently, the plates are analysed for 30 s per well in a Microbeta scintillation counter (Perkin Elmer). IC50 values are determined using the graphic plot of the substance concentration against percentage PDE 5 inhibition.

Assay [2] has as its target T2, recombinant guanylate cyclase reporter cell line (Rattus norvegicus, UniProt P19686+P20595).
T2 construct: expressed in transfected cells
T2 sequence (P19686 1-690): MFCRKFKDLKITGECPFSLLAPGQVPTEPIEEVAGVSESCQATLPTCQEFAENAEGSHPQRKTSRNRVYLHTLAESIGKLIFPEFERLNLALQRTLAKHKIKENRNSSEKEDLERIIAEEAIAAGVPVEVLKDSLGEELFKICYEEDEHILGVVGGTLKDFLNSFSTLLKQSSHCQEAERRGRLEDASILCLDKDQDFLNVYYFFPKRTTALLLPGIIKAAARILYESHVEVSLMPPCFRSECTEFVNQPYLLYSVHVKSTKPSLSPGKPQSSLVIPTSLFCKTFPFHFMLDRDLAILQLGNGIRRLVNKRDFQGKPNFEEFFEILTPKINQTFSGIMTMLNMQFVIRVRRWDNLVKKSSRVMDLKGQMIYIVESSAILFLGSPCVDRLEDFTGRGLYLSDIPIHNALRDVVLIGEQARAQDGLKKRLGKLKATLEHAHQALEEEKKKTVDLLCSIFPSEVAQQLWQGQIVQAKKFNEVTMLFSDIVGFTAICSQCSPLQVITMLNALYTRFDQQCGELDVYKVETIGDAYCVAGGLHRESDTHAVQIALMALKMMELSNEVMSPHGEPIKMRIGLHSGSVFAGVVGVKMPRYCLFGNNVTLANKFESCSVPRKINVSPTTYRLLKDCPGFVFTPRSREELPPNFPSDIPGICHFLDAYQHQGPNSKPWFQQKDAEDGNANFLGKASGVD
T2 sequence (P20595 1-619): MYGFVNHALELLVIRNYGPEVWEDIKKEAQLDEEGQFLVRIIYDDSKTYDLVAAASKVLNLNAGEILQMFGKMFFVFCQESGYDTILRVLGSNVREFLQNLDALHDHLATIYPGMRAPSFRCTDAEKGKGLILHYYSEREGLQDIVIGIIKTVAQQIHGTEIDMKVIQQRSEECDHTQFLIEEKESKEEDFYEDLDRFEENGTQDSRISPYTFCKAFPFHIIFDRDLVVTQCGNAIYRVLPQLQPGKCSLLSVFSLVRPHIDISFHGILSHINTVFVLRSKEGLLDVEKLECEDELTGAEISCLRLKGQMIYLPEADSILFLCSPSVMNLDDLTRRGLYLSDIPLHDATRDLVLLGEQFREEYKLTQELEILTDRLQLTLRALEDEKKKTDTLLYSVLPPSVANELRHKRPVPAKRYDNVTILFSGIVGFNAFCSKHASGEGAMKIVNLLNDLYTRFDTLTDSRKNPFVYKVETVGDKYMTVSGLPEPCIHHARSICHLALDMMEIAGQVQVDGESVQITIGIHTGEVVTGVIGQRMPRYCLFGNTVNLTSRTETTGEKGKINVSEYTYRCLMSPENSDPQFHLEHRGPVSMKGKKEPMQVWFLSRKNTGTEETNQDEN
Put plainly: Effect on a recombinant guanylate cyclase reporter cell line (B-2). The following applies: MEC = minimum effective concentration, in some cases mean values for individual determinations. Type of assay: cell-based. The protocol: B-2. Effect on a Recombinant Guanylate Cyclase Reporter Cell Line
The cellular activity of the compounds according to the invention is determined using a recombinant guanylate cyclase reporter cell line, as described in F. Wunder et al., Anal. Biochem. 339, 104-112 (2005).
Representative MEC values (MEC=minimum effective concentration) for the compounds of the invention are shown in Table 1 below (in some cases as mean values for individual determinations): […]

What is called IC50 is the point on the concentration scale where inhibition reaches its midpoint.

Where a name gives a salt, the structure may show the parent alone.

As for `Cc1nc2c(OCc3c(F)cccc3F)cccn2c1-c1nc(NCC(N)c2ccc(F)c(F)c2)c2c(n1)NC(=O)C2(C)C` (single isomer, unassigned; ent-4) [Example 14, ent-4-{[2-Amino-2-(3,4-difluorophenyl)ethyl]amino}-2-{8-[(2,6-difluorobenzyl)oxy]-2-methylimidazo[1,2-a]pyridin-3-yl}-5,5-dimethyl-5,7-dihydro-6H-pyrrolo[2,3-d]pyrimidin-6-one], in assay [1], the IC50 stood at 91 nM. The MEC in assay [2] was determined as 3 µM.
Compound `Cc1nc2c(OCc3c(F)ccc(F)c3F)cccn2c1-c1nc(O)c2c(n1)NC(=O)C2(C)C` [Example 11, 4-Hydroxy-5,5-dimethyl-2-{2-methyl-8-[(2,3,6-trifluorobenzyl)oxy]imidazo[1,2-a]pyridin-3-yl}-5,7-dihydro-6H-pyrrolo[2,3-d]pyrimidin-6-one] registered an IC50 in assay [1] of 260 nM. Moreover, the MEC in assay [2] came out at 3 µM.
`Cc1nc2c(OCc3c(F)ccc(F)c3F)cccn2c1-c1nc2c(c(C(=O)N3CCC(CO)C3)n1)C(C)(C)C(=O)N2` (racemic) [Example 63, rac-4-{[3-(hydroxymethyl)pyrrolidin-1-yl]carbonyl}-5,5-dimethyl-2-{2-methyl-8-[(2,3,6-trifluorobenzyl)oxy]imidazo[1,2-a]pyridin-3-yl}-5,7-dihydro-6H-pyrrolo[2,3-d]pyrimidin-6-one] returned an IC50 in assay [1] of 220 nM. In assay [2], the MEC is 3 µM.
In assay [1], `Cc1nc2c(OCc3c(F)cccc3F)cccn2c1-c1nc2c(c(NC3CC(O)C3)n1)C(C)(C)C(=O)N2` (mixture of isomers) [Example 30, 2-{8-[(2,6-difluorobenzyl)oxy]-2-methylimidazo[1,2-a]pyridin-3-yl}-4-[(3-hydroxycyclobutyl)amino]-5,5-dimethyl-5,7-dihydro-6H-pyrrolo[2,3-d]pyrimidin-6-one [cis/trans mixture]] had an IC50 of 3.6 nM. For the same compound, in assay [2], the MEC worked out at 1 µM.
The compound `Cc1nc2c(OCc3c(F)cccc3F)cccn2c1-c1nc2c(c(N[C@H]3CC[C@H](O)CC3)n1)C(C)(C)C(=O)N2` [Example 15, 2-{8-[(2,6-Difluorobenzyl)oxy]-2-methylimidazo[1,2-a]pyridin-3-yl}-4-[(trans-4-hydroxycyclohexyl)amino]-5,5-dimethyl-5,7-dihydro-6H-pyrrolo[2,3-d]pyrimidin-6-one] returned an IC50 in assay [1] of 2.5 nM. Also, in assay [2], the MEC was 3 µM.
In the case of `COCC(C)(N)CNc1nc(-c2c(C)nc3c(OCc4c(F)ccc(F)c4F)cccn23)nc2c1C(C)(C)C(=O)N2` (racemic) [Example 35, rac-4-[(2-amino-3-methoxy-2-methylpropyl)amino]-5,5-dimethyl-2-{2-methyl-8-[(2,3,6-trifluorobenzyl)oxy]imidazo[1,2-a]pyridin-3-yl}-5,7-dihydro-6H-pyrrolo[2,3-d]pyrimidin-6-one formate], in assay [1], the IC50 was 35 nM. Further, the MEC in assay [2] amounted to 1 µM.
For `COCC(C)(N)CNc1nc(-c2c(C)nc3c(OCc4c(F)cccc4F)cccn23)nc2c1C(C)(C)C(=O)N2` (single isomer, unassigned; ent-4) [Example 46, ent-4-[(2-Amino-3-methoxy-2-methylpropyl)amino]-2-{8-[(2,6-difluorobenzyl)oxy]-2-methylimidazo[1,2-a]pyridin-3-yl}-5,5-dimethyl-5,7-dihydro-6H-pyrrolo[2,3-d]pyrimidin-6-one (Enantiomer B)], in that order: 120 nM and 1 µM.
With `Cc1nc2c(OCc3c(F)cccc3F)cccn2c1-c1nc(O)c2c(n1)NC(=O)C2(C)C(F)(F)F` (racemic) [Example 8, rac-2-{8-[(2,6-Difluorobenzyl)oxy]-2-methylimidazo[1,2-a]pyridin-3-yl}-4-hydroxy-5-methyl-5-(trifluoromethyl)-5,7-dihydro-6H-pyrrolo[2,3-d]pyrimidin-6-one trifluoroacetate], the IC50 in assay [1] was determined as 120 nM. Moreover, in assay [2], the MEC came to 1 µM.
`Cc1nc2c(OCc3c(F)cccc3F)cccn2c1-c1nc(NCC(N)C(F)(F)C(F)F)c2c(n1)NC(=O)C2(C)C` (racemic) [Example 27, rac-4-[(2-amino-3,3,4,4-tetrafluorobutyl)amino]-2-{8-[(2,6-difluorobenzyl)oxy]-2-methylimidazo[1,2-a]pyridin-3-yl}-5,5-dimethyl-5,7-dihydro-6H-pyrrolo[2,3-d]pyrimidin-6-one] yielded an IC50 in assay [1] of 23 nM. Also, in assay [2], the MEC amounted to 3 µM.
Regarding `Cc1nc2c(OCc3c(F)cccc3F)cccn2c1-c1nc(NC[C@H](O)CO)c2c(n1)NC(=O)C2(C)C` [Example 22, 2-{8-[(2,6-difluorobenzyl)oxy]-2-methylimidazo[1,2-a]pyridin-3-yl}-4-{[(2S)-2,3-dihydroxypropyl]amino}-5,5-dimethyl-5,7-dihydro-6H-pyrrolo[2,3-d]pyrimidin-6-one], 3.9 nM corresponded to half-maximal inhibition in assay [1] (IC50). The MEC in assay [2] stood at 3 µM.
Turning to `Cc1nc2c(OCc3c(F)cccc3F)cccn2c1-c1nc2c(c(NC3CCC(C)(O)CC3)n1)C(C)(C)C(=O)N2` (single isomer, unassigned; diastereomer 2) [Example 29, 2-{8-[(2,6-difluorobenzyl)oxy]-2-methylimidazo[1,2-a]pyridin-3-yl}-4-[(4-hydroxy-4-methylcyclohexyl)amino]-5,5-dimethyl-5,7-dihydro-6H-pyrrolo[2,3-d]pyrimidin-6-one formate (Diastereomer 2)], the midpoint of inhibition in assay [1], the IC50, lay at 0.9 nM. Moreover, the MEC in assay [2] came out at 0.3 µM.
On the same counts, the results for `Cc1nc2c(OCc3c(F)cccc3F)cccn2c1-c1nc(CNS(C)(=O)=O)c2c(n1)NC(=O)C2(C)C` [Example 65, N-[(2-{8-[(2,6-Difluorobenzyl)oxy]-2-methylimidazo[1,2-a]pyridin-3-yl}-5,5-dimethyl-6-oxo-6,7-dihydro-5H-pyrrolo[2,3-d]pyrimidin-4-yl)methyl]methanesulphonamide] are 68 nM and 3 µM.
